Consider two compounds from PMC4764201, “High Throughput Screen for Escherichia coli Twin Arginine Translocation (Tat) Inhibitors” (PLoS ONE, 2016).

This experiment relates to E. coli MC4100(DE3). In words: Cell growth (optical density A500) under Tat++ conditions. The format is cell-based, Escherichia coli. Particulars: Tat++ conditions, concentration-dependent, 8 h 25°C. The procedure: Fig 4 Effect of Oxidative Phosphorylation Inhibitors on In Vivo Tat Transport and Sensitivity of Fluorescence Detection on Plates. (A) Effect of oxidative phosphorylation inhibitors on cell growth and mCherry fluorescence under Tat^++ conditions. Cells producing spTorA-mCherry-SsrA under Tat^++ conditions were grown at 25°C for 8 h in the presence of the indicated respiratory inhibitors. After overnight incubation at 4°C, optical densities (upper panel; A500) and total mCherry cellular fluorescence intensities (lower panel; EX = 587 nm, EM = 610 nm) were measured (n = 3). Nigericin (N; 50 μM) is a H^+/K^+ exchanger, which collapses the ΔpH gradient. Valinomycin (V; 50 μM) is a K^+ ionophore, which collapses the Δψ. NaSCN (SCN; 50 mM) collapses the Δψ. NaN3 (N3; 0.1%) inhibits the cytochrome bo3 terminal oxidase. (B) Effect of NaSCN concentration on cell density and total mCherry cellular fluorescence. Measurements were made after incubating cells overnight at 4°C (n = 3). (C) Calibration and sensitivity of mCherry fluorescence detection in 384-well plates. Overnight cultures of E. coli MC4100(DE3) cells were diluted to A500 = 0.25, 0.2, 0.15, 0.10 and 0.05, and aliquoted into 384-well plates. The spTorA-mCherry-SsrA and TatABC proteins were induced together or neither were induced, as indicated. The cells were incubated at 25°C for 8 hours, and stored overnight at 4°C. Optical densities (upper panel) and mCherry fluorescence intensities (lower panel) were determined with a BMG Polarstar Omega plate reader (at 500 nm for absorbance; EX = 584 nm, EM = 620 nm for fluorescence). For comparison, the absorbance and fluorescence intensities from purified spTorA-mCherry-H6 (30, 25, 20, 15, 10 and 5 nM) are also shown (n = 3 plates, 16 wells/plate). (D) Simulated hits on 384-well plates. Using the approach described in (C), cells (A500 = 0.15) were grown on plates under the indicated conditions, and then fluorescence intensities were measured. spTorA-mCherry-SsrA was used for conditions II-IV. spTorA-mCherry-H6 was used for a minus SsrA control (I; 100%). The SsrA tag decreased the mCherry fluorescence intensity (II; 63±14%), consistent with a decrease in cytoplasmic mCherry concentration due to SsrA-dependent degradation.
The plates containing cells and dispersed test compounds were grown with shaking (200 rpm) at 25°C for 8 h. Plates were individually mounted, not stacked, on a hollow plastic platform, allowing adequate air circulation. Following the 8 h incubation, plates were transferred to 4°C for 16 h. Each plate was covered with an empty plate to prevent condensation on the lid. […] Following the incubation, plates were read using a BMG Polarstar Omega plate reader (BMG Labtech, Ortenberg, Germany) to determine optical densities (A500) and mCherry fluorescence intensities (EX = 584 nm, EM = 620 nm).
Supplementary file pone.0149659.s005.tiff: S5 Fig Effect of P. aeruginosa Tat Inhibitors on E. coli Cell Growth and Tat Transport. The concentration-dependent effects of Bay 11–7082 (A) and N-phenylmaleimide (B) on bacterial growth (black) and in vivo Tat transport of spTorA-mCherry-SsrA (red) was determined under Tat^++ conditions (top). An overnight culture of MC4100(DE3) (pTorA-mCherry-SsrA, pTatABC-Duet1) was diluted 1:50 in 10 mL fresh LB broth with appropriate antibiotics and dispensed (2 mL) into 5 tubes, and growth was continued at 37°C with shaking at 200 rpm until A500 ≈ 0.5. The indicated concentrations of the two compounds were added, and the expression of spTorA-mCherry-SsrA and TatABC were induced. Cultures were grown for another 8 h at 25°C. Cell growth was assayed by A500, and cells (1 mL, A500 = 1.0) were fractionated into cytoplasmic (C) and periplasmic (P) fractions as described. Transport of spTorA-mCherry-SsrA was assayed by in-gel fluorescence of mCherry (upper gels) and Western blot analyses (middle gels). […]

Turning to `Cc1ccc(S(=O)(=O)/C=C/C#N)cc1` [Bay 11–7082], the “effect on E. coli growth” value is listed as “inhibited E. coli growth”. `O=C1C=CC(=O)N1c1ccccc1` [N-phenylmaleimide]: the “effect on E. coli growth” value is given as “inhibited E. coli growth”.
